Results: patent US20210046071A1, “TETRACYCLIC COMPOUNDS AND THEIR SALTS, COMPOSITIONS, AND METHODS FOR THEIR USE” (Senhwa Biosciences, Inc., priority 2019, published 2021)

Tests used:
A375 = test: Alamar Blue cell viability assay, A375; format: cell-based; conditions: Homo sapiens, A-375; A375, Melanoma
Method: (§1) The effect of Compound I on cell viability was assessed by Alamar Blue assay of metabolic activity in various cancer cell lines.

SEM cells = test: Alamar Blue cell viability assay, SEM; format: cell-based; conditions: Leukemia
Method: as §1

NCI-H1299 = test: Alamar Blue cell viability assay, NCI-H1299; format: cell-based; conditions: Homo sapiens; NCI-H1299, Lung
Method: as §1

SR = test: Alamar Blue cell viability assay, SR; format: cell-based; conditions: Homo sapiens, Leukemia
Method: as §1

COLO-205 = test: Alamar Blue cell viability assay, COLO-205; format: cell-based; conditions: Homo sapiens; COLO-205, Colon
Method: as §1

NK92mi = test: Alamar Blue cell viability assay, NK92mi; format: cell-based; conditions: Lymphoma
Method: as §1

HL60 = test: Alamar Blue cell viability assay, HL60; format: cell-based; conditions: Homo sapiens, HL-60; HL60, Leukemia
Method: as §1

BRCA12 deficient cells = test: Toxicity against BRCA12 deficient cells; format: cell-based; conditions: cell lines of different genetic backgrounds (colon, breast and ovary), mouse and human
MDA-MB-231 = test: Alamar Blue cell viability assay, MDA-MB-231; format: cell-based; conditions: Homo sapiens; MDA-MB-231, Breast
Method: as §1

BJ-hTERT = test: Alamar Blue cell viability assay, BJ-hTERT; format: cell-based; conditions: Normal
Method: as §1

[1] = tested on: multiple cancer cell lines; test: Alamar Blue cell viability assay, multiple cancer cell lines; format: cell-based; conditions: Table 1
Method: as §1

A7 = test: Alamar Blue cell viability assay, A7; format: cell-based; conditions: A7, Melanoma
Method: as §1

SK-OV-3 = test: Alamar Blue cell viability assay, SK-OV-3; format: cell-based; conditions: Homo sapiens; SK-OV-3, Ovarian
Method: as §1

MDA-MB-361 = test: Alamar Blue cell viability assay, MDA-MB-361; format: cell-based; conditions: Homo sapiens; MDA-MB-361, Breast
Method: as §1

A549 = test: Alamar Blue cell viability assay, A549; format: cell-based; conditions: Homo sapiens; A549, Lung
Method: as §1

PANC-1 = test: Alamar Blue cell viability assay, PANC-1; format: cell-based; conditions: Homo sapiens; PANC-1, Pancreatic
Method: as §1

MDA-MB-453 = test: Alamar Blue cell viability assay, MDA-MB-453; format: cell-based; conditions: Homo sapiens; MDA-MB-453, Breast
Method: as §1

CCD-1096Sk = test: Alamar Blue cell viability assay, CCD-1096Sk; format: cell-based; conditions: Normal
Method: as §1

CCD-1094Sk = test: Alamar Blue cell viability assay, CCD-1094Sk; format: cell-based; conditions: Normal
Method: as §1

MOLT-3 = test: Alamar Blue cell viability assay, MOLT-3; format: cell-based; conditions: Homo sapiens; MOLT-3, Leukemia
Method: as §1

[2] = tested on: BRCA2 knockout tumor cells; test: BRCA2 knockout tumor xenograft model; format: in vivo; conditions: compared with isogenic wild type control cells
RPMI-8226 = test: Alamar Blue cell viability assay, RPMI-8226; format: cell-based; conditions: Homo sapiens; RPMI-8226, Myeloma
Method: as §1

THP-1 = test: Alamar Blue cell viability assay, THP-1; format: cell-based; conditions: Homo sapiens; THP-1, Leukemia
Method: as §1

LNCaP = test: Alamar Blue cell viability assay, LNCaP; format: cell-based; conditions: Homo sapiens, Prostate
Method: as §1

EOL-1 = test: Alamar Blue cell viability assay, EOL-1; format: cell-based; conditions: Homo sapiens, EOL1; EOL-1, Leukemia
Method: as §1

BT-474 = test: Alamar Blue cell viability assay, BT-474; format: cell-based; conditions: Homo sapiens; BT-474, Breast
Method: as §1

Jurkat = test: Alamar Blue cell viability assay, Jurkat; format: cell-based; conditions: Homo sapiens, Leukemia
Method: as §1

Ramos = test: Alamar Blue cell viability assay, Ramos; format: cell-based; conditions: Homo sapiens, Lymphoma
Method: as §1

CCD-1068Sk = test: Alamar Blue cell viability assay, CCD-1068Sk; format: cell-based; conditions: Normal
Method: as §1

Saos-2 = test: Alamar Blue cell viability assay, Saos-2; format: cell-based; conditions: Homo sapiens; Saos-2, Osteosarcoma
Method: as §1

NCI-H520 = test: Alamar Blue cell viability assay, NCI-H520; format: cell-based; conditions: Homo sapiens; NCI-H520, Lung
Method: as §1

[3] = Dose escalation study in patients, toxicity and adverse events; format: in vivo, human
Method: Pharmacokinetic studies and dose escalation studies were conducted in adult patients with metastatic, recurrent, locally, advanced, or unresectable solid malignancy (patients with histologically and/or cytologically confirmed solid malignancy), who received prior anti-cancer treatment(s) until disease progression, at 10 different dose levels of Compound I. Groups 1-7 were administered intravenously on days 1 and 8 of a 4-week cycle at 50, 100, 150, 200, 250, 325, and 475 mg/m^2 (lyophilized formulation), respectively. Groups 8-10 were administered intravenously on days 1,8, and 15 of a 4-week cycle at 325, 475, and 650 mg/m^2 (lyophilized formulation), respectively. Each patient received each dose over 1 hour by IV infusion on days described above.

CCD-1058Sk = test: Alamar Blue cell viability assay, CCD-1058Sk; format: cell-based; conditions: Normal
Method: as §1

**Q.** Which EC50 (A375) does the source give for Cc1cnc(CNC(=O)c2c(=O)c3ccc(N4CCCN(C)CC4)nc3n3c2sc2ccccc23)cn1 [Compound I, 2-(4-Methyl-[1,4]diazepan-1-yl)-5-oxo-5H-7-thia-1,11b-diaza-benzo[c]fluorene-6-carboxylic acid (5-methyl-pyrazin-2-ylmethyl)-amide] here?
**A.** The EC50 was 0.058 µM.

**Q.** What about the EC50 (SEM cells) of the same compound?
**A.** Its EC50 is 0.018 µM.

**Q.** What about the EC50 (NCI-H1299) of the same compound?
**A.** The EC50 was 0.055 µM.

**Q.** What about the EC50 (SR) of the same compound?
**A.** The EC50 was 0.005 µM.

**Q.** What about the EC50 (COLO-205) of the same compound?
**A.** The EC50 was 0.096 µM.

**Q.** What about the EC50 (NK92mi) of the same compound?
**A.** The EC50 was 0.165 µM.

**Q.** What about the EC50 (HL60) of the same compound?
**A.** The EC50 was 0.083 µM.

**Q.** And the “Toxicity against BRCA12 deficient cells” value (BRCA12 deficient cells)?
**A.** The value was “specific toxicity”.

**Q.** What about the EC50 (MDA-MB-231) of the same compound?
**A.** Its EC50 is 0.083 µM.

**Q.** And the EC50 (BJ-hTERT)?
**A.** The EC50 was 5.17 µM.

**Q.** What about the Antiproliferative activity [1] of the same compound?
**A.** The Antiproliferative activity was “broad spectrum antiproliferative activity”.

**Q.** And the EC50 (A7)?
**A.** Its EC50 is 0.023 µM.

**Q.** And the EC50 (SK-OV-3)?
**A.** The EC50 was 0.078 µM.

**Q.** And the EC50 (MDA-MB-361)?
**A.** Its EC50 is 2.1 µM.

**Q.** And the EC50 (A549)?
**A.** Its EC50 is 4.9 µM.

**Q.** What about the EC50 (PANC-1) of the same compound?
**A.** Its EC50 is 5 µM.

**Q.** And the EC50 (MDA-MB-453)?
**A.** The EC50 was 0.14 µM.

**Q.** And the EC50 (CCD-1096Sk)?
**A.** Its EC50 is 5.26 µM.

**Q.** And the EC50 (CCD-1094Sk)?
**A.** The EC50 was 4.81 µM.

**Q.** And the EC50 (MOLT-3)?
**A.** Its EC50 is 0.006 µM.

**Q.** What about the “Activity in BRCA2 knockout tumor cells in a xenograft model” value [2] of the same compound?
**A.** Its value is “wide therapeutic index of activity”.

**Q.** And the EC50 (RPMI-8226)?
**A.** Its EC50 is 0.068 µM.

**Q.** What about the EC50 (THP-1) of the same compound?
**A.** The EC50 was 0.047 µM.

**Q.** And the EC50 (LNCaP)?
**A.** Its EC50 is 5.5 µM.

**Q.** What about the EC50 (EOL-1) of the same compound?
**A.** Its EC50 is 0.003 µM.

**Q.** What about the EC50 (BT-474) of the same compound?
**A.** Its EC50 is 0.086 µM.

**Q.** What about the EC50 (Jurkat) of the same compound?
**A.** Its EC50 is 0.064 µM.

**Q.** And the EC50 (Ramos)?
**A.** Its EC50 is 0.066 µM.

**Q.** And the EC50 (CCD-1068Sk)?
**A.** Its EC50 is 5.07 µM.

**Q.** And the EC50 (Saos-2)?
**A.** The EC50 was 5 µM.

**Q.** What about the EC50 (NCI-H520) of the same compound?
**A.** The EC50 was 0.07 µM.

**Q.** And the “Serious adverse events (SAEs) considered related to Compound I” value ([3]; Groups 1-10)?
**A.** Its value is “Three”.

**Q.** What about the “Treatment-related AE: hand-foot syndrome” value ([3]; Groups 1-10) of the same compound?
**A.** The value was 23%.

**Q.** What about the “Treatment-related AE: headache” value ([3]; Groups 1-10) of the same compound?
**A.** The value was 10%.

**Q.** What about the “Treatment-related AE: mucositis” value ([3]; Groups 1-10) of the same compound?
**A.** Its value is 15%.

**Q.** And the “Treatment-related AE: nausea” value ([3]; Groups 1-10)?
**A.** Its value is 44%.

**Q.** And the “Treatment-related AE: photosensitivity of the eyes” value ([3]; Groups 1-10)?
**A.** Its value is 21%.

**Q.** What about the “Treatment-related AE: photosensitivity of the skin” value ([3]; Groups 1-10) of the same compound?
**A.** The value was 59%.

**Q.** And the “Treatment-related AE: rash” value ([3]; Groups 1-10)?
**A.** The value was 10%.

**Q.** And the “Dose level toxicity (DLT)” value ([3]; Groups 1-10, 50 to 650 mg/m^2 IV)?
**A.** The value was “No dose level toxicity (DLT) were observed”.

**Q.** And the “Treatment-related non-DLT grade 3 photosensitivity events” value ([3]; in Groups 1, 5, and 8-10, reversible)?
**A.** The value was 5.

**Q.** What about the EC50 (CCD-1058Sk) of the same compound?
**A.** The EC50 was 4.71 µM.
